Test results published in article PMC9225722, “Synthesis and biological evaluation of thieno[3,2-c]pyrazol-3-amine derivatives as potent glycogen synthase kinase 3β inhibitors for Alzheimer’s disease” (Journal of Enzyme Inhibition and Medicinal Chemistry, 2022).

What was measured:
GSK-3β = GSK-3β (Homo sapiens, UniProt P49841); assay: GSK-3β kinase assay (calliper mobility shift assay); assay type: biochemical; details: for IC50: mean ± SD from two separate experiments, calliper mobility shift assay; for fold less active than 16b (GSK-3β inhibition): compared with 16b
[1] = system: phosphorylation of GSK-3β at Ser9; assay: Western blot of p-GSK-3β (Ser9) in SH-SY5Y cells; assay type: cell-based, human; details: LiCl positive control, concentration not given; 2.5 h; control 0.33
Description: GSK-3β is activated by phosphorylation at Tyr216 and is inhibited by phosphorylation at Ser9 [48]. As one of the substrates of Akt (protein kinase B), GSK-3 can inhibit Akt[49]. The inhibition of GSK-3β increases the p-Akt expression and activates the PI3K/Akt pathway, and that, in turn, phosphorylates the GSK-3β at the Ser9 site[50]^,[51]. […] As shown in Figure 6(A), LiCl greatly promoted GSK-3β phosphorylation at Ser9 (p-GSK-3β/GAPDH: 0.60 vs 0.33). […] Therefore, in cellular level, compound 16b was confirmed to have a direct effect on GSK-3β.
Figure 6. (A) The effect of 16b on phosphorylation of GSK-3β at Ser9; (B) the effect of 16b on β-catenin abundance. Protein expressions were detected by immunoblot analysis with a specific antibody. Values are reported as the mean ± SD of three independent experiments. *p < 0.05, **p < 0.01, ***p < 0.001 vs control.
SH-SY5Y cells (1 × 10^6) were seeded in 12-well plates (Corning, Los Altos, MA, USA) and incubated with compound 16b or LiCl at the indicated concentrations for 2.5 h at 37 °C in 5% CO2. At the end of incubation, cells were lysed by addition of ice-cold RIPA buffer containing a protease inhibitor cocktail. The protein quantification was determined using a BCA protein assay kit (Jiangsu KeyGEN BioTECH Co., Ltd., Nanjing, China). Cellular lysates were mixed with an equal volume of SDS (sodium dodecyl sulfate) loading buffer (Jiangsu KeyGEN BioTECH Co., Ltd., Nanjing, China) and separated by electrophoresis (Bio-rad Power Supplies Basic, Shanghai, China) in polyacrylamide gel. Proteins were transferred from acrylamide gels to nitrocellulose membranes and blocked in a blocking buffer (PBS, 5% non-fat milk) for 1.5 to 2 h at 20 °C. […] The blots were washed by TBST for 20 min and detected with ECL chemiluminescent reagent (Jiangsu KeyGEN BioTECH Co., Ltd., Nanjing, China) for 3 min. Pixel intensity was quantitated using gel imaging system (SYNGENE G:BOX/iChemi XR5, ISS, San Diego, CA, US) and Gel-Pro32 software (Media Cybernetics, Bethesda, MD, USA). […]

GSK-3β, sequence (P49841 whole entry): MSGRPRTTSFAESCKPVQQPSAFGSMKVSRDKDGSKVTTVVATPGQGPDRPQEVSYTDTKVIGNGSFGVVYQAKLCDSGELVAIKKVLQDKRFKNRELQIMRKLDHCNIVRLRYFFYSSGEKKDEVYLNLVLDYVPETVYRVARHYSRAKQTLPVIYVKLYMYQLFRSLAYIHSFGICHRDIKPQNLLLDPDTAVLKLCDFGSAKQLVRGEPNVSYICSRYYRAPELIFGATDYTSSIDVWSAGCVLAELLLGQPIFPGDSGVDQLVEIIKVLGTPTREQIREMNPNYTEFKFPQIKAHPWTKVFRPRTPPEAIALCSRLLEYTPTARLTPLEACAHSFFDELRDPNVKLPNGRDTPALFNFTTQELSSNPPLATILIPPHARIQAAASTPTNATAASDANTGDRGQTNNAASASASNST

SMILES | melting point [°C] | IC50 (GSK-3β) [nM] | further results
CC(C)C(=O)Nc1n[nH]c2cc(-c3cnccc3-c3ccccc3)sc12 [Compound 18a, N-(5-(4-Phenylpyridin-3-yl)-1H-thieno[3,2-c]pyrazol-3-yl)isobutyramide] | > 240 | 84 ± 3.2 | –
CCCC(=O)Nc1n[nH]c2cc(-c3cncc(-c4ccccc4)c3)sc12 [Compound 17c, N-(5-(5-Phenylpyridin-3-yl)-1H-thieno[3,2-c]pyrazol-3-yl)butyramide] | > 240 | 37 ± 1.3 | –
CC(C)C(=O)Nc1n[nH]c2cc(-c3cnccc3-c3ccc(C(F)(F)F)cc3)sc12 [Compound 18l, N-(5-(4-(4-(trifluoromethyl)phenyl)pyridin-3-yl)-1H-thieno[3,2-c]pyrazol-3-yl)isobutyramide] | > 240 | 158 ± 8.9 | –
CCCS(=O)(=O)Nc1n[nH]c2cc(-c3cncc(-c4ccccc4)c3)sc12 [Compound 17d, N-(5-(5-Phenylpyridin-3-yl)-1H-thieno[3,2-c]pyrazol-3-yl)propane-1-sulphonamide] | 112 to 114 | > 5000 | GSK-3β inhibitory activity (in words) (GSK-3β): not active
O=C(Nc1n[nH]c2cc(-c3cccnc3)sc12)C1CC1 [Compound 16a, N-(5-(pyridin-3-yl)-1H-thieno[3,2-c]pyrazol-3-yl)cyclopropanecarboxamide] | 224 to 226 | 4.4 ± 0.2 | –
COc1ccc(-c2ccncc2-c2cc3[nH]nc(NC(=O)C(C)C)c3s2)cc1 [Compound 18g, N-(5-(4-(4-Methoxyphenyl)pyridin-3-yl)-1H-thieno[3,2-c]pyrazol-3-yl)isobutyramide] | > 240 | 105 ± 5.2 | –
COc1cccc(-c2ccncc2-c2cc3[nH]nc(NC(=O)C(C)C)c3s2)c1 [Compound 18f, N-(5-(4-(3-Methoxyphenyl)pyridin-3-yl)-1H-thieno[3,2-c]pyrazol-3-yl)isobutyramide] | 212 to 214 | 113 ± 8.6 | –
CCCC(=O)Nc1n[nH]c2cc(-c3cccnc3)sc12 [Compound 16c, N-(5-(pyridin-3-yl)-1H-thieno[3,2-c]pyrazol-3-yl)butyramide] | 238 to 240 | 36 ± 1.7 | fold less active than 16b (GSK-3β inhibition) (GSK-3β): about 10 fold
CC(C)C(=O)Nc1n[nH]c2cc(-c3cnccc3-c3cccc(C(F)(F)F)c3)sc12 [Compound 18k, N-(5-(4-(3-(trifluoromethyl)phenyl)pyridin-3-yl)-1H-thieno[3,2-c]pyrazol-3-yl)isobutyramide] | 202 to 204 | 107 ± 6.1 | –
O=C(Nc1n[nH]c2cc(-c3cccnc3)sc12)c1ccccc1 [Compound 16e, N-(5-(pyridin-3-yl)-1H-thieno[3,2-c]pyrazol-3-yl)benzamide] | > 240 | 33 ± 1.6 | fold less active than 16b (GSK-3β inhibition) (GSK-3β): about 10 fold
CC(C)C(=O)Nc1n[nH]c2cc(-c3cnccc3-c3cccc(F)c3)sc12 [Compound 18i, N-(5-(4-(3-Fluorophenyl)pyridin-3-yl)-1H-thieno[3,2-c]pyrazol-3-yl)isobutyramide] | > 240 | 173 ± 6.8 | –
CC(C)C(=O)Nc1n[nH]c2cc(-c3cnccc3-c3ccc(F)cc3)sc12 [Compound 18j, N-(5-(4-(4-Fluorophenyl)pyridin-3-yl)-1H-thieno[3,2-c]pyrazol-3-yl)isobutyramide] | > 240 | 15 ± 0.3 | –
Cc1cccc(-c2ccncc2-c2cc3[nH]nc(NC(=O)C(C)C)c3s2)c1 [Compound 18c, N-(5-(4-(3-Methylphenyl)pyridin-3-yl)-1H-thieno[3,2-c]pyrazol-3-yl)isobutyramide] | 236 to 238 | 153 ± 6.6 | –
CC(C)C(=O)Nc1n[nH]c2cc(-c3cnccc3-c3ccc(-c4ccccc4)cc3)sc12 [Compound 18m, N-(5-(4-([1,1'-Biphenyl]-4-yl)pyridin-3-yl)-1H-thieno[3,2-c]pyrazol-3-yl)isobutyramide] | 159 to 161 | 387 ± 21.2 | –
Cc1ccccc1-c1ccncc1-c1cc2[nH]nc(NC(=O)C(C)C)c2s1 [Compound 18b, N-(5-(4-(2-Methylphenyl)pyridin-3-yl)-1H-thieno[3,2-c]pyrazol-3-yl)isobutyramide] | > 240 | 64 ± 2.3 | –
[Cl-].[Li+] [LiCl, reference compound] | – | – | p-GSK-3β/GAPDH ratio (Ser9) [1]: 0.60
Cc1ccc(-c2ccncc2-c2cc3[nH]nc(NC(=O)C(C)C)c3s2)cc1 [Compound 18d, N-(5-(4-(4-Methylphenyl)pyridin-3-yl)-1H-thieno[3,2-c]pyrazol-3-yl)isobutyramide] | 239 to 240 | 99 ± 4.8 | –
COc1ccccc1-c1ccncc1-c1cc2[nH]nc(NC(=O)C(C)C)c2s1 [Compound 18e, N-(5-(4-(2-Methoxyphenyl)pyridin-3-yl)-1H-thieno[3,2-c]pyrazol-3-yl)isobutyramide] | 213 to 215 | 64 ± 2.7 | –
CC(C)C(=O)Nc1n[nH]c2cc(-c3cncc(-c4ccccc4)c3)sc12 [Compound 17b, N-(5-(5-Phenylpyridin-3-yl)-1H-thieno[3,2-c]pyrazol-3-yl)isobutyramide] | > 240 | 14 ± 0.6 | fold less active than 16b (GSK-3β inhibition) (GSK-3β): about 4 fold
CCCS(=O)(=O)Nc1n[nH]c2cc(-c3cccnc3)sc12 [Compound 16d, N-(5-(pyridin-3-yl)-1H-thieno[3,2-c]pyrazol-3-yl)propane-1-sulphonamide] | 208 to 210 | 1390 ± 55.2 | GSK-3β inhibitory activity (in words) (GSK-3β): very weak
CC(C)C(=O)Nc1n[nH]c2cc(-c3cnccc3-c3ccccc3F)sc12 [Compound 18h, N-(5-(4-(2-Fluorophenyl)pyridin-3-yl)-1H-thieno[3,2-c]pyrazol-3-yl)isobutyramide] | > 240 | 94 ± 3.5 | –
CC(C)C(=O)Nc1n[nH]c2cc(-c3cnccc3-c3ccc4ccccc4c3)sc12 [Compound 18n, N-(5-(4-(naphthalen-2-yl)pyridin-3-yl)-1H-thieno[3,2-c]pyrazol-3-yl)isobutyramide] | > 240 | 195 ± 10.4 | fold less active than 18a (GSK-3β inhibition) (GSK-3β; compared with 18a): about 2 fold
O=C(Nc1n[nH]c2cc(-c3cncc(-c4ccccc4)c3)sc12)C1CC1 [Compound 17a, N-(5-(5-Phenylpyridin-3-yl)-1H-thieno[3,2-c]pyrazol-3-yl)cyclopropanecarboxamide] | > 240 | 20 ± 1.1 | fold less active than 16a (GSK-3β inhibition) (GSK-3β; compared with 16a): about 4 fold
